Assay results as given in ChEMBL document CHEMBL5046271, “Design, Synthesis, and Biological Evaluation of 2-Formyl Tetrahydronaphthyridine Urea Derivatives as New Selective Covalently Reversible FGFR4 Inhibitors” (J Med Chem, 2022).
Activity calls are given as the source filed them. The calls are words filed in the database; no cut-off is given here.

Legend:
[1] = Toxicity in mouse assessed as mortality at 30 mg/kg, po BID administered for 12 days (reference value: < 5 %); type: organism-based; details: in vivo, 288 h, time 12 day
Hep 3B2 [2] = experiment: Inhibition of colony formation in human Hep 3B2.1-7 cells incubated for 10 days by crystal violet staining based assay; type: functional, cell-based; details: time 10.0 day
[3] = molecular target: Platelet-derived growth factor receptor beta (Homo sapiens) (UniProt P09619); experiment: Inhibition of human PDGFRB expressed in bacterial expression system at 1000 nM by KINOMEscan assay relative to control
Sequence of Platelet-derived growth factor receptor beta (Homo sapiens) (P09619 whole entry): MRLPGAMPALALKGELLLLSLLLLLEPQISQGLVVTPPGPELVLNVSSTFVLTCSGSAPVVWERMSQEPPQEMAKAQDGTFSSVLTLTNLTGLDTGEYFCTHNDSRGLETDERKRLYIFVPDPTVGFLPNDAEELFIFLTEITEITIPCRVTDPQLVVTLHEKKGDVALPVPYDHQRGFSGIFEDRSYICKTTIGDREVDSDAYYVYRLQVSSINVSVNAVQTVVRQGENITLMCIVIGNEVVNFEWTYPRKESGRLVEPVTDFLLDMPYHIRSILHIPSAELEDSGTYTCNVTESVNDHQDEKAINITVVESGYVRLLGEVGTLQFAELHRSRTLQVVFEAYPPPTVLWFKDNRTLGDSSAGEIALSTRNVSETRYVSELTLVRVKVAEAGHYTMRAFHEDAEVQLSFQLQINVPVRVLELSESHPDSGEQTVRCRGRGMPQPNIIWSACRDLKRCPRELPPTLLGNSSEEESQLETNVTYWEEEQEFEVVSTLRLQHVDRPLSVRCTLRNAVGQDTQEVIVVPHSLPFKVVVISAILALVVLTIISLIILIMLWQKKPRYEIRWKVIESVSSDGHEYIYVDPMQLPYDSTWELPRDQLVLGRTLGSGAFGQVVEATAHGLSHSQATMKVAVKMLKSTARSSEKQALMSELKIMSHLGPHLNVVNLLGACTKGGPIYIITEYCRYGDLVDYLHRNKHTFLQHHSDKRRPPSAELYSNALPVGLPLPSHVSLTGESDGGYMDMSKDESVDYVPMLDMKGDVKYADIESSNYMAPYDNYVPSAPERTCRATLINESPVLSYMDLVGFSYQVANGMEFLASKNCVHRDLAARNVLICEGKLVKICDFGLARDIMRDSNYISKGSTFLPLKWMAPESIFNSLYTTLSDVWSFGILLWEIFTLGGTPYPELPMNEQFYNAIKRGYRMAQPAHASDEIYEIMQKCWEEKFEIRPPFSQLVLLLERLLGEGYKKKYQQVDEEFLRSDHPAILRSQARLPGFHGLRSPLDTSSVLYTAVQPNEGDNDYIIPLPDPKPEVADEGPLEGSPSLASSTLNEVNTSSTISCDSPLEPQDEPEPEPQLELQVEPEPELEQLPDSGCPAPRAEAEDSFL

Huh-7 = experiment: Cytotoxicity against human Huh-7 cells harboring FGF19/FGFR4 assessed as inhibition of cell growth
[4] = molecular target: Transient receptor potential cation channel subfamily M member 7 (Homo sapiens) (UniProt Q96QT4); experiment: Inhibition of human CHAK1 at 1000 nM by KINOMEscan assay relative to control
[5] = molecular target: Proto-oncogene tyrosine-protein kinase receptor Ret (Homo sapiens) (UniProt P07949); experiment: Inhibition of human RET expressed in bacterial expression system at 1000 nM by KINOMEscan assay relative to control
NCI-H1581 [6] = experiment: Cytotoxicity against human NCI-H1581 cells harboring FGF19/FGFR4 assessed as inhibition of cell growth
[7] = molecular target: T1, Fibroblast growth factor receptor 3 (Homo sapiens, UniProt P22607); experiment: Inhibition of human FGFR3 expressed in bacterial expression system at 1000 nM by KINOMEscan assay relative to control
Target sequence in this assay (P22607 23-806 limits assumed): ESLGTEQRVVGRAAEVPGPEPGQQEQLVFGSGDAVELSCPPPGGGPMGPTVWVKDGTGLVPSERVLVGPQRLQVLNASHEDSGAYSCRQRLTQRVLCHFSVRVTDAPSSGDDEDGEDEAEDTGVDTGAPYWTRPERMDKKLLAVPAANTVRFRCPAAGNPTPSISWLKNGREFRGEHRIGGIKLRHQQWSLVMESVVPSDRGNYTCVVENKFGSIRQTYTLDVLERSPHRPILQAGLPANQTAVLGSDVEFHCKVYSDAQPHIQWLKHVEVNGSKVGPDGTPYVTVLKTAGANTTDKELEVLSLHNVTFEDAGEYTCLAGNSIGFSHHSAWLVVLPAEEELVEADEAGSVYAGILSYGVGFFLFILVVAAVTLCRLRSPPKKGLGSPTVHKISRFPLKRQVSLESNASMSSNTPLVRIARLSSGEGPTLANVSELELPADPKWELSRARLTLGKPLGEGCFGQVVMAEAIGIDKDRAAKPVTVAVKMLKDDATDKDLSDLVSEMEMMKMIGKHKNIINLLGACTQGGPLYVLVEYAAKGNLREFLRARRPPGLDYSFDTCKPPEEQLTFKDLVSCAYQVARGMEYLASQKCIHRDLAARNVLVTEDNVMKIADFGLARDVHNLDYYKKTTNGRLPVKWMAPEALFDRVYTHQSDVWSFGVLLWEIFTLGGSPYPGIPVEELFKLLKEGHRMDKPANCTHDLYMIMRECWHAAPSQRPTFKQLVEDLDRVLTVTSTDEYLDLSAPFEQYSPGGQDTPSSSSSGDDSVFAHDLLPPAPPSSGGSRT

[8] = AUC(0 to t) in Sprague-Dawley rat at 5 mg/kg, iv incubation upto 24 hrs by LC-MS/MS analysis; type: ADME, organism-based; set-up: route intravenous, dose 5 mg/kg, time <=24; details: in vivo
[9] = molecular target: T2, Fibroblast growth factor receptor 4 (Homo sapiens, UniProt P22455); experiment: Binding affinity to FGFR4 (unknown origin) assessed as dissociation constant by competition binding assay
T2 sequence (P22455 whole entry): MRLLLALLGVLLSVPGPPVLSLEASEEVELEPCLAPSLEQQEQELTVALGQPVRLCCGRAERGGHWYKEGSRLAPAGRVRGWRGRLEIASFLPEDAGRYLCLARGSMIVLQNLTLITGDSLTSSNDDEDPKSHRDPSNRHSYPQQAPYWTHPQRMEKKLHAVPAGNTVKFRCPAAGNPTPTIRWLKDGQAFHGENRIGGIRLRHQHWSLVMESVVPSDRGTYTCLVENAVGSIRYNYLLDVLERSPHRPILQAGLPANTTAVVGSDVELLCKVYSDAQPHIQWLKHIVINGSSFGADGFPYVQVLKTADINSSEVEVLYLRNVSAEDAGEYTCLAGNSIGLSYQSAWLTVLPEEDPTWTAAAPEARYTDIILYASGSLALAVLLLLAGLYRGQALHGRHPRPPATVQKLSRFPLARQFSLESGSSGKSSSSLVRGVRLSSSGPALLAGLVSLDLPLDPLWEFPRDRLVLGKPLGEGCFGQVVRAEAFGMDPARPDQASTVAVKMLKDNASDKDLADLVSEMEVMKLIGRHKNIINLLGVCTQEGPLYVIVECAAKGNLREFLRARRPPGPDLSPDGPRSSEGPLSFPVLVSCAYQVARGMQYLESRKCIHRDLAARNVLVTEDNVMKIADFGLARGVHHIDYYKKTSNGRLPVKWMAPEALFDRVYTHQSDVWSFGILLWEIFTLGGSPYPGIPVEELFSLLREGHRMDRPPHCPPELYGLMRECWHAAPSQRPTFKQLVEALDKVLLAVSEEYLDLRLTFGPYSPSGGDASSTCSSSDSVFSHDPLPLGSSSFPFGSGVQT

[10] = molecular target: T2, Fibroblast growth factor receptor 4; experiment: Inhibition of FGFR4 (unknown origin) using Tyr 04 peptide substrate measured after 2 hrs by FRET assay
Hep 3B2 [11] = experiment: Cytotoxicity against human Hep 3B2.1-7 cells harboring FGF19/FGFR4 assessed as inhibition of cell growth; details: Hep3B
NCI-H1581 [12] = experiment: Inhibition of colony formation in human NCI-H1581 cells incubated for 10 days by crystal violet staining based assay; type: functional, cell-based; details: time 10.0 day
Hep 3B2 [13] = experiment: Antitumor activity against human Hep 3B2.1-7 cells xenografted in mouse assessed as tumor growth inhibitions at 30 mg/kg, po BID administered for 12 days; type: functional; details: Hep3B, 288 h, time 12 day, read-out: TGI
[14] = Toxicity in mouse assessed as induction of weight loss at 30 mg/kg, po BID administered for 12 days (reference value: < 5 %); type: organism-based; details: in vivo, 288 h, time 12 day
[15] = molecular target: MAP kinase-activated protein kinase 2 (Homo sapiens) (UniProt P49137); experiment: Inhibition of human MAPKAPK2 expressed in bacterial expression system at 1000 nM by KINOMEscan assay relative to control
Sequence of MAP kinase-activated protein kinase 2 (Homo sapiens) (P49137 whole entry, looked up): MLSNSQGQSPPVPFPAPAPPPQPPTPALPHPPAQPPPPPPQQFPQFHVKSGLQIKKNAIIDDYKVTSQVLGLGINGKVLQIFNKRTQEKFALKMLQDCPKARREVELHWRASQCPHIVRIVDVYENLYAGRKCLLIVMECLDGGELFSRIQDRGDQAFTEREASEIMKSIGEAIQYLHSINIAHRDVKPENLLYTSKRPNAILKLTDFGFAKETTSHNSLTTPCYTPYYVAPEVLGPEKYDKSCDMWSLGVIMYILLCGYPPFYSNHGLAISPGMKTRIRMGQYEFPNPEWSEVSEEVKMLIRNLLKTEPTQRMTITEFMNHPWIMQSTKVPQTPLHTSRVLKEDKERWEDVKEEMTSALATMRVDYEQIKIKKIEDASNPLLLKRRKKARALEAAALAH

[16] = molecular target: T1, Fibroblast growth factor receptor 3; experiment: Inhibition of FGFR3 (unknown origin) using Tyr 04 peptide substrate measured after 2 hrs by FRET assay
Target sequence in this assay (P22607 whole entry): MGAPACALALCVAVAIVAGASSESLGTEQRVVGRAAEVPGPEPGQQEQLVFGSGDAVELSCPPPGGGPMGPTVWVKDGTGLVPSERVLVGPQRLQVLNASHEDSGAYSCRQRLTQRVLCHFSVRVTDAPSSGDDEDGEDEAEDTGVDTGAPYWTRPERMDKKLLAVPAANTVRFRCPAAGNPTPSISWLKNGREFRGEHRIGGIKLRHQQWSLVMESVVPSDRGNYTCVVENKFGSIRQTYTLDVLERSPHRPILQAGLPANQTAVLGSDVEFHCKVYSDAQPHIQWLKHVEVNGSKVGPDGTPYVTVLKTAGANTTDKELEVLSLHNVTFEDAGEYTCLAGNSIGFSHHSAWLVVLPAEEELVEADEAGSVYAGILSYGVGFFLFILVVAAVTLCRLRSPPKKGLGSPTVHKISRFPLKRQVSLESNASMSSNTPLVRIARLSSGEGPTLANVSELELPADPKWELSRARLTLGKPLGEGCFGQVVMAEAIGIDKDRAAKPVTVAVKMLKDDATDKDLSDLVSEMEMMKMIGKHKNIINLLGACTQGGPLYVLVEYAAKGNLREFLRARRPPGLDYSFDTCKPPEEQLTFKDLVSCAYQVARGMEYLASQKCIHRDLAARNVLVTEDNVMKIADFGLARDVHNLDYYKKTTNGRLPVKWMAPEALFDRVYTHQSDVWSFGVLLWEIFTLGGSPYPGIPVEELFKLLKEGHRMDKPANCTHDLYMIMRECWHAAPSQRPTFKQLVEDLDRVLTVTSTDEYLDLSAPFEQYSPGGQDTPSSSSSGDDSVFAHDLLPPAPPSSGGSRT

[17] = Half life in Sprague- Dawley rat at 25 mg/kg, po incubation upto 24 hrs by LC-MS/MS analysis; type: ADME, organism-based; details: in vivo
[18] = Oral bioavailability in Sprague- Dawley rat at 25 mg/kg incubation upto 24 hrs by LC-MS/MS analysis; type: ADME, organism-based; details: in vivo
BaF3 [19] = experiment: Inhibition of FGFR4 expressed in mouse BaF3-ETV6-FGFR4 cells assessed as inhibition of FRS2alpha phosphorylation by Western blot analysis; type: cell-based; details: dose 3.7-100 nM
BaF3 [20] = experiment: Inhibition of FGFR4 expressed in mouse BaF3-ETV6-FGFR4 cells assessed as inhibition of ERK phosphorylation by Western blot analysis; type: cell-based; details: dose 3.7-100 nM
NCI-H1581 [21] = experiment: Antiproliferative activity in human NCI-H1581 cells assessed as reduction of cell number measured after 72 hrs by CCK8 assay; type: functional, cell-based
Hep 3B2 [22] = experiment: Antiproliferative activity in human Hep 3B2.1-7 cells assessed as reduction of cell number measured after 72 hrs by CCK8 assay; type: functional, cell-based
[23] = Clearance in Sprague- Dawley rat at 5 mg/kg, iv incubation upto 24 hrs by LC-MS/MS analysis; type: ADME, organism-based; details: in vivo
BaF3 [24] = experiment: Inhibition of FGFR4 expressed in mouse BaF3-ETV6-FGFR4 cells assessed as inhibition of PLCgamma1 phosphorylation by Western blot analysis; type: cell-based; details: dose 3.7-100 nM
[25] = Cmax in Sprague-Dawley rat at 25 mg/kg, po incubation upto 24 hrs by LC-MS/MS analysis; type: ADME, organism-based; set-up: route oral, dose 25 mg/kg, time <=24; details: in vivo
MDA-MB-453 = experiment: Cytotoxicity against human MDA-MB-453 cells harboring FGF19/FGFR4 assessed as inhibition of cell growth
[26] = Half life in Sprague- Dawley rat at 5 mg/kg, iv incubation upto 24 hrs by LC-MS/MS analysis; type: ADME, organism-based; details: in vivo
[27] = molecular target: T3, Fibroblast growth factor receptor 1 (Homo sapiens, UniProt P11362); experiment: Inhibition of FGFR1 (unknown origin) using Tyr 04 peptide substrate measured after 2 hrs by FRET assay
[28] = molecular target: Phosphatidylinositol 4-kinase alpha (Homo sapiens) (UniProt P42356); experiment: Inhibition of human PIK4 at 1000 nM by KINOMEscan assay relative to control
[29] = molecular target: T4, Dual specificity protein kinase TTK (Homo sapiens) (UniProt P33981); experiment: Inhibition of human TTK at 1000 nM by KINOMEscan assay relative to control
T4 sequence (whole entry): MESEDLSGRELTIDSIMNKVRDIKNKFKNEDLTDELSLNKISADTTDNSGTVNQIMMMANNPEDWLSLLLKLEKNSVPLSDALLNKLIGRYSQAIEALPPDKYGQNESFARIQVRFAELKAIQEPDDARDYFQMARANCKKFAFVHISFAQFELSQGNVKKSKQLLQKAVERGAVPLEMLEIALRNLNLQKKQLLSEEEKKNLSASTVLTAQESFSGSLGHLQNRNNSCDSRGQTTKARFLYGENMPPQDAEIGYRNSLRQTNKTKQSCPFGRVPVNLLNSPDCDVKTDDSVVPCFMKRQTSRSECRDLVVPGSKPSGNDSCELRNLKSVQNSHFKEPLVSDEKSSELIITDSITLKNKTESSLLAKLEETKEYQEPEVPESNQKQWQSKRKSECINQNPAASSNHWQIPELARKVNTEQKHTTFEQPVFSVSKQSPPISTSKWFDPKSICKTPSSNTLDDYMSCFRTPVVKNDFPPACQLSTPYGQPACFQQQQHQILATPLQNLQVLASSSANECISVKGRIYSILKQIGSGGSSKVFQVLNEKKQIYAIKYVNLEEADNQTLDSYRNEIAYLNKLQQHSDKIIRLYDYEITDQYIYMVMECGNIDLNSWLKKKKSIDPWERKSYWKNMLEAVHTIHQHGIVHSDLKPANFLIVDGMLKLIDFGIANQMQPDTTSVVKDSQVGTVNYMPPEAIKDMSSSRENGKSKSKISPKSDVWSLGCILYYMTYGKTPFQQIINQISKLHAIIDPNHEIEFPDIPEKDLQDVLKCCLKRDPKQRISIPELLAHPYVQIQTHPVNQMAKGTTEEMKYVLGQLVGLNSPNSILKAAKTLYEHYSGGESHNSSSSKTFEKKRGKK

[30] = molecular target: MAP kinase-activated protein kinase 3 (Homo sapiens) (UniProt Q16644); experiment: Inhibition of human MAPKAPK3 expressed in bacterial expression system at 1000 nM by KINOMEscan assay relative to control
[31] = system: Fibroblast growth factor receptor 2 (Homo sapiens), P21802 [N549H]; experiment: Inhibition of human FGFR2 N549H mutant expressed in bacterial expression system at 1000 nM by KINOMEscan assay relative to control
[32] = molecular target: T3, Fibroblast growth factor receptor 1; experiment: Inhibition of human FGFR1 expressed in bacterial expression system at 1000 nM by KINOMEscan assay relative to control
[33] = molecular target: Receptor-type tyrosine-protein kinase FLT3 (Homo sapiens) (UniProt P36888); experiment: Inhibition of human FLT3 expressed in bacterial expression system at 1000 nM by KINOMEscan assay relative to control
Sequence of Receptor-type tyrosine-protein kinase FLT3 (Homo sapiens) (P36888 whole entry): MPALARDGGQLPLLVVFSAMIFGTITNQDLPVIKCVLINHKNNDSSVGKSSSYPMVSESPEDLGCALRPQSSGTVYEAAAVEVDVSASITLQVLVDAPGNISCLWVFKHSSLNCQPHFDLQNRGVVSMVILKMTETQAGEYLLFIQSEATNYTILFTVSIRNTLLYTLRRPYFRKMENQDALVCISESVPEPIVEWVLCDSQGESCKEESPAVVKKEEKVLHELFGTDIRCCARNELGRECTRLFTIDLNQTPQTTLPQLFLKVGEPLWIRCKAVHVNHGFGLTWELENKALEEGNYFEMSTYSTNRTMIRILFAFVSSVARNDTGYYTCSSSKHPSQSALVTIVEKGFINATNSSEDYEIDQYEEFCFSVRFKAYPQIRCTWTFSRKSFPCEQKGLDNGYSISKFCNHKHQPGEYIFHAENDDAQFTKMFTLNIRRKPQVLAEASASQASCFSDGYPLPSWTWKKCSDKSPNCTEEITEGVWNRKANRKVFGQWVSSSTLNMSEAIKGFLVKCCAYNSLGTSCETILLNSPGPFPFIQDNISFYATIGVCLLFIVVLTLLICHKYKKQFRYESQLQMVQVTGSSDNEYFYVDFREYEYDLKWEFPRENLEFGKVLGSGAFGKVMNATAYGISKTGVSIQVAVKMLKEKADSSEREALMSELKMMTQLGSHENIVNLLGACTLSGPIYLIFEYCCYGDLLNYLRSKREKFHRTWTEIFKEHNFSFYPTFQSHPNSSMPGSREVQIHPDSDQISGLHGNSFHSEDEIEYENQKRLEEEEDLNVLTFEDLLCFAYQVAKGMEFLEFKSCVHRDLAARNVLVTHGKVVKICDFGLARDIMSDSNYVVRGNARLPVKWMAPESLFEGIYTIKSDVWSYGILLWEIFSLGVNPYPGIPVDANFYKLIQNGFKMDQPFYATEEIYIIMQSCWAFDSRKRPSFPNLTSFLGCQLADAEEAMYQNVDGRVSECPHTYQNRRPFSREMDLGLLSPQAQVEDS

[34] = molecular target: Fibroblast growth factor receptor 2 (Homo sapiens, UniProt P21802); experiment: Inhibition of FGFR2 (unknown origin) using Tyr 04 peptide substrate measured after 2 hrs by FRET assay
[35] = molecular target: Platelet-derived growth factor receptor alpha (Homo sapiens) (UniProt P16234); experiment: Inhibition of human PDGFRA expressed in mammalian expression system at 1000 nM by KINOMEscan assay relative to control
[36] = AUC(0 to t) inSprague- Dawley rat at 25 mg/kg, po incubation upto 24 hrs by LC-MS/MS analysis; type: ADME, organism-based; set-up: route oral, dose 25 mg/kg, time <=24; details: Sprague-Dawley, in vivo
[37] = Cmax in Sprague-Dawley rat at 5 mg/kg, iv incubation upto 24 hrs by LC-MS/MS analysis; type: ADME, organism-based; set-up: route intravenous, dose 5 mg/kg, time <=24; details: in vivo

## CC(C)Oc1cc(NC(=O)N2CCCc3cc(CN4CCN(C)CC4=O)c(C=O)nc32)ncc1C#Cc1cccnc1
[1]
  Activity: Non-Toxic
Hep 3B2 [2]
  Activity: Active
[3]
  inhibition: 5%
Huh-7
  IC50: 0.0024 µM
[4]
  inhibition: 8%
[5]
  inhibition: -2%
NCI-H1581 [6]
  IC50: > 3 µM
[7]
  inhibition: 10%
[8]
  AUC(0-t) at 24 h: 15300 ng·h/mL
[9]
  Kd: 0.0062 µM
[10]
  IC50: 0.0054 µM
Hep 3B2 [11]
  IC50: 0.104 µM
NCI-H1581 [12]
  Activity: Active
Hep 3B2 [13]
  inhibition in vivo at 30 mg/kg: 95.2%
[14]
  Activity: Non-Toxic
[15]
  inhibition: -3%
[16]
  IC50: > 10 µM
[17]
  half-life: 3.06 h
[18]
  bioavailability: 51%
BaF3 [19]
  inhibition: Dose-Dependent Effect
BaF3 [20]
  inhibition: Dose-Dependent Effect
NCI-H1581 [21]
  Activity: Active
Hep 3B2 [22]
  Activity: Active
[23]
  clearance: 6.15 mL/min/kg
BaF3 [24]
  inhibition: Dose-Dependent Effect
[25]
  Cmax: 8560 ng/mL
MDA-MB-453
  IC50: 0.14 µM
[26]
  half-life: 0.89 h
[27]
  IC50: > 10 µM
[28]
  inhibition: 6%
[29]
  inhibition: 10%
[30]
  inhibition: 3%
[31]
  inhibition: 1%
[32]
  inhibition: -5%
[33]
  inhibition: 10%
[34]
  IC50: > 10 µM
[35]
  inhibition: 5%
[36]
  AUC(0-t) at 24 h: 39000 ng·h/mL
[37]
  Cmax: 11100 ng/mL
